From patent US11078228B2, “Ectonucleotidase inhibitors and methods of use thereof” (Calithera Biosciences, Inc., priority 2018, dated 2021) come the findings set out here.

Each structure is given as a SMILES string. Like-named read-outs stand apart in the source and are kept apart here.

Data set [1] has as its target recombinant CD73 (Homo sapiens (Human), UniProt P21589). Put plainly: Assay 2: Inhibition of the CD73 enzyme in vitro (0.05 nM CD73, 1 hour 37° C., Malachite Green). The format is biochemical. The conditions noted are these: 0.05 nM CD73, 50 μM AMP, 1 hour at 37° C. The method, boiled down: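 Free phosphate was quantified from absorbance at 630 nm against a phosphate standard curve. This was read 5 min after Malachite Green was added at room temperature. Beforehand, the recombinant soluble enzyme reacted for 1 hour at 37° C.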

Data set [2] deals with EG7 tumors. Put plainly: Tumor-directed immune response: flow cytometry of excised EG7 tumors. Type of data set: in vivo, mouse. The following applies: 50 mg/kg orally BID from day one, tumors excised day 14. As for the experimental part:
EG7 cells were implanted subcutaneously into C57BL/6 mice. Compound 9 (50 mg/kg) or vehicle was orally administered BID starting day one post implant (N=10 per group). Tumors were excised on day 14 and analyzed by flow cytometry. Compound 9 increased the % CD8+ cells of CD45+ cells as shown in FIG. 1A (* indicates p<0.05). EG7 cells were implanted subcutaneously into C57BL/6 mice. Anti-CD8 antibody was dosed i.p. on days −1, 0, 5, and 10. Compound 9 (50 mg/kg) or vehicle was orally dosed BID starting on day 1.
In general terms: A flow cytometer gives signals particle by particle.

The test system of data set [3] is Human CD8+ T cells. Put plainly: Reversal of AMP-mediated suppression of CD8+ T cells. Type of data set: cell-based. The following applies: T-cell, 96 h, 4 days. As for the experimental part:
Human CD8+ T cells were labeled with CellTrace CFSE and then pre-incubated with an adenosine deaminase inhibitor and Compound 9 or vehicle for 20 minutes. 20 μM AMP was added for assessing T cell proliferation and CD25 expression. 10 μM AMP was added for assessing cytokine production. T cells were activated with α-CD3, α-CD28, and hIL2. After 4 days, proliferation and CD25 expression were assessed by flow cytometry and cytokine levels in the supernatant were measured by ELISA. EC50s were determined using a four-parameter dose-response curve equation.

Data set [4] concerns the target human CD39 (Homo sapiens (Human), UniProt P49961). Kind of data set: Cell surface CD39 activity, K562 cells expressing human CD39, Kinase-Glo. The format is cell-based. As for the experimental part: (§1) Using Compound 9, the activity of cell surface CD39 was assessed using K562 cells expressing human CD39 and Kinase-Glo. Activity of recombinant human ENTPD2 and ENTPD3 was assessed using a malachite green assay. […] Compound 9 was screened in the Eurofins Safety Screen Panel and the Eurofins Express Diversity Kinase Profile Panel. In the Safety Panel, 1/87 targets were inhibited at >50% at 10 μM of Compound 9. The PDE3 enzyme was inhibited at 59%.
In general terms: In Kinase-Glo more light means more ATP remaining.

Data set [5] concerns PDE3 enzyme. Put plainly: Eurofins Safety Screen Panel: PDE3. The format is biochemical. The conditions noted are these: 10 μM. On the procedure:
as §1

For data set [6], the target named is Eurofins Express Diversity Kinase Profile Panel (45 targets). Kind of data set: Eurofins Express Diversity Kinase Profile Panel. Type of data set: biochemical. On the procedure: as §1
Data set [7] concerns EG7 cells. Kind of data set: Viability of EG7 cells, CellTiter-Glo. The format is cell-based, mouse. The following applies: 100 μM, 3 days. As for the experimental part: (§2) Viability of EG7 and A375 cells treated with 100 μM Compound 9 was measured using CellTiter-Glo after 3 days. Proliferation of human CD8+ T cells was measured by flow cytometry after 4 days of treatment with 100 μM Compound 9 using CellTrace CFSE Cell Proliferation Kit.

Data set [8] has as its system A375 cells. Put plainly: Viability of A375 cells, CellTiter-Glo. The format is cell-based, human. The conditions noted are these: 100 μM, 3 days. As for the experimental part: as §2
For orientation: Cellular ATP, detected with luciferase, serves as a proxy for viable cell number.

Data set [9] deals with CD73-expressing SK-MEL-28 cells (Homo sapiens (Human), UniProt P21589). Put plainly: Human CD73 cell surface assay, CD73-expressing SK-MEL-28 cells, malachite green. The format is cell-based. As for the experimental part:
(§3) The potency of Compound 9 was evaluated against recombinant CD73 and CD73-expressing SK-MEL-28 cells using a malachite green assay. Inhibition of CD73 in plasma was measured using LC/MS to assess conversion of ^15N5-AMP into ^15N5-ADO. FIG. 4A indicates the nanomolar inhibition of CD73 cells from both human and mouse sources. […] Inhibition of CD73 in plasma was measured using LC/MS to assess conversion of ^15N5-AMP into ^15N5-ADO.

The target of data set [10] is T1, mouse plasma CD73 (Mus musculus (Mouse), UniProt Q61503). Kind of data set: Inhibition of CD73 in mouse plasma (IC50). The format is biochemical. As for the experimental part:
as §3
(§4) Single dose Compound 9 (50 mg/kg) was administered orally to mice and plasma was collected at indicated time points. Compound 9 levels were measured by LC/MS. Plasma was harvested from mice 2 hours post dose and spiked with ^15N5-AMP and a TNAP inhibitor. ^15N5-ADO levels were measured by LC/MS.

Data set [11] deals with T1, mouse plasma CD73. Kind of data set: Oral dosing pharmacodynamics: CD73 inhibition in plasma of dosed mice. Type of data set: in vivo. The following applies: single oral dose 50 mg/kg, plasma 2 hours post dose. As for the experimental part: as §4

As usually defined, the IC50 is the concentration that gives 50% inhibition. The inhibition is the percentage by which the read-out fell short of the control. Read a high inhibition as a response far below the control.

T1 sequence (Q61503 29-576): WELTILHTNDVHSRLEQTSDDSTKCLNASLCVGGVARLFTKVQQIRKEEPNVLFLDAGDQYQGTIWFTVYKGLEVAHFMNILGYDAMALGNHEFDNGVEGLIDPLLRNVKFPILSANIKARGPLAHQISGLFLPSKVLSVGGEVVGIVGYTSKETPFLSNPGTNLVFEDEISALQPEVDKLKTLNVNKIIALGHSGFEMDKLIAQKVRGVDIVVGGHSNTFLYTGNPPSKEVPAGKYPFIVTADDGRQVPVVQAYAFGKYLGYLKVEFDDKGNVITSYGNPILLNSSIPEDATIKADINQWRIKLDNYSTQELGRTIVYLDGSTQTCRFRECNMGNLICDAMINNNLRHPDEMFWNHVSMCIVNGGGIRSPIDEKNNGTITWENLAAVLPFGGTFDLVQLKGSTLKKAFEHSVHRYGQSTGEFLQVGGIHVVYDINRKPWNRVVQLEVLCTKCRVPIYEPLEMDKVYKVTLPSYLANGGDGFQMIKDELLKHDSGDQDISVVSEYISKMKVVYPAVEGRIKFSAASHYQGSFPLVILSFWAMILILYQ
Chain of recombinant CD73 (P21589 27-547): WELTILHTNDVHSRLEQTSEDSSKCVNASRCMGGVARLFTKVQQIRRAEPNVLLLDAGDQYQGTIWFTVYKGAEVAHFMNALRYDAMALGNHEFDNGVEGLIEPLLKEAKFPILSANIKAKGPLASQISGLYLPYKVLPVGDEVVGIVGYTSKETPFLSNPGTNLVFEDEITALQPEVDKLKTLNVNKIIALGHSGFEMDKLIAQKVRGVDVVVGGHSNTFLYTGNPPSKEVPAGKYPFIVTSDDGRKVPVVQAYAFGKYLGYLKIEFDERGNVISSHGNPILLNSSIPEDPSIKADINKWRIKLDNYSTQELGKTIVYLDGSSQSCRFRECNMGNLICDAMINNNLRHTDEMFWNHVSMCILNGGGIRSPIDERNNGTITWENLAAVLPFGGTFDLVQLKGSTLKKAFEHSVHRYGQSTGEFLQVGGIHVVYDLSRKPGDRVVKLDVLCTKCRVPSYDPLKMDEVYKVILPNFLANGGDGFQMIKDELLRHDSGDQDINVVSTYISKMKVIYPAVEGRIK
Chain of CD73-expressing SK-MEL-28 cells (P21589 27-574): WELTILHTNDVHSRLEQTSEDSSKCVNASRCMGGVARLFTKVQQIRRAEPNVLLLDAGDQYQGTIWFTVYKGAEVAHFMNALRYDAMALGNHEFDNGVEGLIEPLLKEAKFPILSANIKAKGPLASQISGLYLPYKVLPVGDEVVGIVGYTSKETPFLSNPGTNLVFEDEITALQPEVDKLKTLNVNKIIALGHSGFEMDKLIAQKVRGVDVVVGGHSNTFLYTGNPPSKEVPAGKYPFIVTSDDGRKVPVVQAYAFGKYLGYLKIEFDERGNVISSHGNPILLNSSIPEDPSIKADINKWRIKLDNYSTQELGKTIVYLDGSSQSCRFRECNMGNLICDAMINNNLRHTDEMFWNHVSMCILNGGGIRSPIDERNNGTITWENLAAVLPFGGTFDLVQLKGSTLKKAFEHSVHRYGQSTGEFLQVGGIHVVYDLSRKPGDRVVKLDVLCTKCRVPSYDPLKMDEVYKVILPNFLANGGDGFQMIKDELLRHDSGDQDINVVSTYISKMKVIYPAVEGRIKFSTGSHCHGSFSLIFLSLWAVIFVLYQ
Chain of human CD39 (P49961 whole entry): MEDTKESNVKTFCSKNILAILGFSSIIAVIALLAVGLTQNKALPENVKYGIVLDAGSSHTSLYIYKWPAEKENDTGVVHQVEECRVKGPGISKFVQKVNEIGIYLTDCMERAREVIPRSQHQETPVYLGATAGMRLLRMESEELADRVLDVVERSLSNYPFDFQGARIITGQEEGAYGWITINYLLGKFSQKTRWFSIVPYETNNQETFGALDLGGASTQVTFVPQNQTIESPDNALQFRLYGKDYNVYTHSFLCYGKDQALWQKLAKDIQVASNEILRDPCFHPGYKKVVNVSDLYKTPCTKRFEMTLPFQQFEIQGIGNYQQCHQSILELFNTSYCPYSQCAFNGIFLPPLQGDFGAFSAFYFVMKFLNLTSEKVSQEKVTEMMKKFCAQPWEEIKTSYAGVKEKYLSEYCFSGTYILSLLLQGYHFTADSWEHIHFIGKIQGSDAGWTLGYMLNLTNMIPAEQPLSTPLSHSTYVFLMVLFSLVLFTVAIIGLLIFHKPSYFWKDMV

As to `C#C[C@@]1(O)[C@@H](COC(Cc2ccc(N3CCCNC3=O)cc2)(C(=O)O)C(=O)O)O[C@@H](n2cnc3c(N)nc(Cl)nc32)[C@@H]1O` [Compound 9, 2-(((2R,3S,4R,5R)-5-(6-amino-2-chloro-9H-purin-9-yl)-3-ethynyl-3,4-dihydroxytetrahydrofuran-2-yl)methoxy)-2-(4-(2-oxotetrahydropyrimidin-1 (2H)-yl)benzyl)malonic acid], the concentration for half-maximal inhibition (IC50) in data set [1] is 0.17 nM; in data set [4], > 10000 nM; in [9], 0.21 nM; in data set [10] it was 1 nM. In addition, the “% CD8+ cells of CD45+ cells” value in data set [2] is reported as “increased”. The EC50 in [3] (10 μM AMP, ELISA, read-out: EC50 for Granzyme B production) amounted to 5.6 nM; in [3] (10 μM AMP, ELISA, read-out: EC50 for IFNγ production), 4.5 nM; in data set [3] (20 μM AMP, flow cytometry, read-out: EC50 for CD8+ T cell activation (CD25 expression)) it was 9.6 nM; in [3] (20 μM AMP, flow cytometry, read-out: EC50 for CD8+ T cell proliferation) it was 11.6 nM. In data set [5], this molecule showed a PDE3 enzyme inhibition of 59%. In addition, the “Kinase Panel targets inhibited at >50%” value in [6] was “none of the 45 targets”. The “% cell survival of EG7 cells” value in [7] was “comparable % cell survival”. The “% cell survival of A375 cells” value in data set [8] is reported as “comparable % cell survival”. In data set [11], this molecule showed an inhibition at 50 mg/kg of 92%.
